Tested on: 922993-354-T-J3-PDC complex spheroids, viability, % test/control
Test: Anticancer human tumor 922993-354-T-J3-PDC patient-derived endometrial carcinoma cell line growth inhibition [CLK]
Conditions: for IC50: curve of first compound; for viability, T/C: stronger effect = lower value
Excerpt: A high-throughput screen of multi-cell type tumor spheroids was designed to identify active combinations of […] and targeted small molecules. Complex spheroids include a stromal component modeled by human endothelial cells (HUVEC) and fibroblasts modeled by human mesenchymal stem cells (MSCs). The concentration ranges selected for each drug and investigational agent were based upon clinically achievable concentrations if the clinical Cmax of the agent was known.
Compounds. The drugs and investigational agents: cirtuvivint (SM08502; NSC835563), CC-671 (NSC850746), vemurafenib (NSC761431), tapotoclax (NSC804041), sotorasib (NSC818433), adagrasib (NSC831453), MRTX-1133 (NSC836407), BAY2416964 (NSC825713), copanlisib (NSC816437), inavolisib (NSC800729), abemaciclib (NSC768073), osimertinib (NSC779217), entinostat (NSC756642), eltanexor (KPT-8602, NSC794443), venetoclax (NSC766270), ceralasertib (NSC777638), bortezomib (NSC756655), olaparib (NSC753686), talazoparib (NSC767125), alisertib (NSC759677), peposertib (NSC802822), gemcitabine (NSC613327), 5-fluorouracil (NSC19893), SN-38 (NSC673596), oxaliplatin (NSC266046), paclitaxel (NSC125973), and doxorubicin (NSC123127), were obtained from the National Cancer Institute (NCI) Developmental Therapeutics Program Chemical Repository. The FDA-approved anticancer drug set is available from the Developmental Therapeutics Program at https://dtp.cancer.gov/organization/dscb/obtaining/available plates.htm. […] The stock solutions were prepared in dimethyl sulfoxide (DMSO, Sigma-Aldrich, St. Louis, MO, cat. D2650), except for the platinum complexes which were prepared in saline (Quality Biological, Gaithersburg, MD, cat. 114-055-101), at 800-fold the tested concentration and stored at -70 degrees C prior to their use. All drugs and investigational agents were tested over a range starting from a high concentration at or near the clinical Cmax and decreasing in half-log increments. If the clinical Cmax for an agent had not been determined, the highest concentration tested was 10 microM.
Cell Culture. All cells were maintained in an incubator at 37 degrees C and 5% CO2 with 95% humidity. The PDC lines were cultured according to standard operating procedures established by the NCI PDMR. Briefly, all PDCs were thawed and cultured in Matrigel-coated flasks prepared with a working solution of 1X Ham's F-12 nutrient mix, without supplementation (Invitrogen, Waltham, MA, cat. 11765054), 100 U/mL penicillin-streptomycin (Invitrogen, cat. 15140122), and 2.5% Matrigel (Corning Inc., Corning, NY, cat. 354248) for the first three passages. The 947758-054-R-J2-PDC line was cultured in 6B/Colon 1A media, which includes advanced DMEM/F-12 (Thermo Fisher Scientific, cat. 12634028), 10 mM HEPES (Thermo Fisher Scientific, cat. 15630080), 1X GlutaMAX supplement (Thermo Fisher Scientific, cat. 35050061), 0.1 mg/mL primocin (InvivoGen, cat. ant-pm-2), 10% defined fetal bovine serum, heat inactivated (HyClone Laboratories Inc., cat. SH30070.03HI), 1.25 mM N-Acetyl-L-cysteine (Sigma-Aldrich, cat. A9165), 10 mM nicotinamide (Sigma-Aldrich, cat. N0636), 1X B-27 supplement (Thermo Fisher Scientific, cat. 17504044), 1X N-2 supplement (Thermo Fisher Scientific, cat. 17502048), and 10 microM Y-27632 dihydrochloride (Tocris Bioscience, cat. 1254). The 876862-298-R-J1-PDC was cultured in 6E media, which includes all 6B/Colon 1A media components plus 50% L-WRN conditioned media (ATCC, cat. CRL-3276), 50 ng/mL recombinant human EGF recombinant protein (hEGF; Thermo Fisher Scientific, cat. PHG0311), 10 ng/mL recombinant human fibroblast growth factor 10 (hGFG-10; PeproTech, cat. 100-26), 1 ng/mL recombinant human fibroblast growth factor 2 (hFGF-2; PeproTech, cat. 100-18B), and 1 µM prostaglandin E2 (PGE2; Tocris, cat. 2296). The 227483-062-R1-J1-PDC line was cultured in Panc media, containing all 6E components except hFGF-2, with the addition of 500 nM SB-431542 (Selleckchem, cat. S1067) and 10 nM gastrin (Tocris, cat. 3006). […]
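Further: spheroids exposed to the agents for 7 days before readout.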

Question: How did the IC50 (second compound 0.0316 µM) turn out when `COC1C=CCC(C)C(C)S(=O)(=O)NC(=O)c2ccc3c(c2)N(CC2CCC21)CC1(CCCc2cc(Cl)ccc21)CO3` (configuration not stated) + CN1CCN(c2cc(C(=O)Nc3cc4cc(-c5cnn(C)c5)ccc4cn3)ccn2)CC1 was run?
Answer: The IC50 was 5390 nM.

Question: And the IC50 (second compound 0.1 µM)?
Answer: Its IC50 is 3790 nM.

Question: And the IC50 (second compound 0.316 µM)?
Answer: The IC50 was < 31.6 nM.

Question: And the IC50 (second compound 1 µM)?
Answer: The IC50 was < 31.6 nM.

Question: What about the IC50 (second compound 3.16 µM) of the same molecule?
Answer: Its IC50 is < 31.6 nM.

Question: And the IC50 (second compound 10 µM)?
Answer: Its IC50 is < 31.6 nM.

Question: What about the viability, T/C (second compound 0.0316 µM, first compound 0.0316 µM) of the same molecule?
Answer: The viability, T/C was 111%.

Question: And the viability, T/C (second compound 0.0316 µM, first compound 0.1 µM)?
Answer: Its viability, T/C is 107%.

Question: What about the viability, T/C (second compound 0.0316 µM, first compound 0.316 µM) of the same molecule?
Answer: Its viability, T/C is 85.1%.

Question: And the viability, T/C (second compound 0.0316 µM, first compound 1 µM)?
Answer: Its viability, T/C is 91.4%.

Question: And the viability, T/C (second compound 0.0316 µM, first compound 3.16 µM)?
Answer: The viability, T/C was 84.9%.

Question: And the viability, T/C (second compound 0.0316 µM, first compound 10 µM)?
Answer: The viability, T/C was 13.6%.

Question: What about the viability, T/C (second compound 0.1 µM, first compound 0.0316 µM) of the same molecule?
Answer: Its viability, T/C is 122%.

Question: What about the viability, T/C (second compound 0.1 µM, first compound 0.1 µM) of the same molecule?
Answer: Its viability, T/C is 99.7%.

Question: And the viability, T/C (second compound 0.1 µM, first compound 0.316 µM)?
Answer: The viability, T/C was 85.6%.

Question: And the viability, T/C (second compound 0.1 µM, first compound 1 µM)?
Answer: Its viability, T/C is 90.1%.

Question: And the viability, T/C (second compound 0.1 µM, first compound 3.16 µM)?
Answer: The viability, T/C was 60.6%.

Question: What about the viability, T/C (second compound 0.1 µM, first compound 10 µM) of the same molecule?
Answer: Its viability, T/C is 10.8%.

Question: What about the viability, T/C (second compound 0.316 µM, first compound 0.0316 µM) of the same molecule?
Answer: The viability, T/C was 42.2%.

Question: What about the viability, T/C (second compound 0.316 µM, first compound 0.1 µM) of the same molecule?
Answer: Its viability, T/C is 48%.

Question: And the viability, T/C (second compound 0.316 µM, first compound 0.316 µM)?
Answer: Its viability, T/C is 31.7%.

Question: And the viability, T/C (second compound 0.316 µM, first compound 1 µM)?
Answer: The viability, T/C was 21.1%.

Question: What about the viability, T/C (second compound 0.316 µM, first compound 3.16 µM) of the same molecule?
Answer: Its viability, T/C is 13.6%.

Question: And the viability, T/C (second compound 0.316 µM, first compound 10 µM)?
Answer: Its viability, T/C is 7.1%.

Question: And the viability, T/C (second compound 1 µM, first compound 0.0316 µM)?
Answer: The viability, T/C was 0.12%.

Question: What about the viability, T/C (second compound 1 µM, first compound 0.1 µM) of the same molecule?
Answer: The viability, T/C was 0.13%.

Question: And the viability, T/C (second compound 1 µM, first compound 0.316 µM)?
Answer: The viability, T/C was 0.15%.

Question: And the viability, T/C (second compound 1 µM, first compound 1 µM)?
Answer: The viability, T/C was 0.22%.

Question: What about the viability, T/C (second compound 1 µM, first compound 3.16 µM) of the same molecule?
Answer: Its viability, T/C is 0.1%.

Question: And the viability, T/C (second compound 1 µM, first compound 10 µM)?
Answer: The viability, T/C was 0.79%.

Question: What about the viability, T/C (second compound 3.16 µM, first compound 0.0316 µM) of the same molecule?
Answer: The viability, T/C was 0.11%.

Question: What about the viability, T/C (second compound 3.16 µM, first compound 0.1 µM) of the same molecule?
Answer: Its viability, T/C is 0.17%.

Question: What about the viability, T/C (second compound 3.16 µM, first compound 0.316 µM) of the same molecule?
Answer: Its viability, T/C is 1.93%.

Question: And the viability, T/C (second compound 3.16 µM, first compound 1 µM)?
Answer: Its viability, T/C is 0.13%.

Question: And the viability, T/C (second compound 3.16 µM, first compound 3.16 µM)?
Answer: The viability, T/C was 2.55%.

Question: What about the viability, T/C (second compound 3.16 µM, first compound 10 µM) of the same molecule?
Answer: The viability, T/C was 0.89%.

Question: And the viability, T/C (second compound 10 µM, first compound 0.0316 µM)?
Answer: The viability, T/C was 0.15%.

Question: What about the viability, T/C (second compound 10 µM, first compound 0.1 µM) of the same molecule?
Answer: The viability, T/C was 1.42%.

Question: What about the viability, T/C (second compound 10 µM, first compound 0.316 µM) of the same molecule?
Answer: The viability, T/C was 1.53%.

Question: What about the viability, T/C (second compound 10 µM, first compound 1 µM) of the same molecule?
Answer: The viability, T/C was 0.22%.

Question: What about the viability, T/C (second compound 10 µM, first compound 3.16 µM) of the same molecule?
Answer: The viability, T/C was 0.8%.

Question: And the viability, T/C (second compound 10 µM, first compound 10 µM)?
Answer: The viability, T/C was 2.41%.
